Data taken from patent publication US7234365B2, “Methods and systems for dissolution testing” (Symyx Technologies, Inc., priority 2003, dated 2007).

What was measured:
[1] = High throughput dissolution screening of Aspirin; type: physicochemical; settings: 10 mg powdered Aspirin in 10 ml deionized water, shaker, UV detector, 37 second sampling frequency for 30 minutes, FIG. 7
Method: A 10 mg of powdered Aspirin standard from Aldrich was weighted into a 20 ml scintillation vial and put on a shaker at a robot platform. The shaker was then turned on and an automated dispensing unit with a 10 ml syringe dispensed 10 ml of deionized water into the 20 ml scintillation vial containing the 10 mg of Aspirin thereby initiating dissolution of the 10 mg of Aspirin into the 10 ml of deionized water to form, over time, a solution having an increasing concentration of aspirin.
Thereafter, an automated sampling unit aspirated approximately 300 μL of the solution (the sample itself never enters the syringe) through an in-line filter allowing a sampled aliquot of the filtered solution to enter a switching valve and fill a 20 μL sample loop connected to the ports of the switching valve. Once the 20 μL sample loop was filled with a portion of the aliquot, the switching valve was switched to a second position by automation, causing the sub-aliquot contained in the 20 μL sample loop to be discharged into an analytical unit. The analytical unit comprised a syringe pump and an UV detector, for determining concentration. At this point, the automated sampling unit returned the remainder portion of the filtered aliquot back through the filter and back into the solution contained in the scintillation vial. […]

[2] = addition of viscogens such as glycerol or Ficoll; cited from earlier work

Compound	time to reach maximum dissolution [1]	photo stability [2]
CC(=O)Oc1ccccc1C(=O)O [Aspirin]	less than 10 minutes	
Vitamin-B12		increase in photo stability
